# Test results: EP4768487A1, “FUSED LACTAM RING COMPOUND AND USE THEREOF” (Chengdu Zenitar Biomedical Technology Co., Ltd., priority 2023, dated 2025)
# Experiments:
# [1] = target: T1, PARP1 (Homo sapiens, UniProt P09874); assay: PARP1 enzyme assay (histone-coated plate, chemiluminescence); format: biochemical; conditions: PARP1 0.02 nM, DNA 0.8 nM, NAD+ 3.5 µM; read-out: PARP-1 IC50
# T1 construct: purchased BPS 80501
# Method: 1.1.1. Buffer preparation: PBST: 1× PBS, 0.05% Tween-20; blocking buffer: 1× PBS, 0.05% Tween-20, 5% BSA; reaction buffer: 50 mM Tris-HCl (pH 7.5), 0.005% Tween-20, 0.01% BSA.
# 1.1.2. Coating: A 50 ng/mL Histone coating solution was prepared with 1× PBS and then transferred to a 384-well reaction plate at 25 µL/well. The plate was coated at 4 °C overnight.
# 1.1.3. Washing: After the coating was completed, the coating solution was discarded, and the plate was washed with the PBST solution. The method was as follows: PBST was transferred to the 384-well reaction plate at 50 µL/well, and the plate was left to stand for 5 min. The washing solution was then discarded, and the plate was refilled. The washing step was repeated 3 times. Finally, the reaction plate was patted dry and left for the next step of blocking.
# 1.1.4. Blocking: The blocking buffer was transferred to the 384-well reaction plate at 50 µL/well, and the plate was left to stand for 1 h.
# Washing: After the blocking was completed, the blocking buffer was discarded, and the plate was washed 3 times with the PBST solution according to the method in step 2. Finally, the reaction plate was patted dry.
# 1.1.5. A 1000-fold solution of a compound was prepared and then transferred at 1 µL/well to a 96-well plate containing 199 µL of the reaction buffer. The mixture was well mixed, and then the well mixed compound solution was transferred to the 384-well reaction plate at 5 µL/well. 1.1.6. A 25/10-fold PARP1-DNA solution was prepared with the reaction buffer and then transferred to the 384-well reaction plate at 10 µL/well. For the negative control wells, 10 µL
# of the DNA solution was transferred. The final concentrations of PARP1 and DNA were 0.02 nM and 0.8 nM, respectively.
# 1.1.9. Washing: After the reaction was completed, the reaction solution was discarded, and the plate was washed 3 times with the PBST solution according to the method in step 2. Finally, the reaction plate was patted dry.
# 1.1.10. A primary antibody (anti-Poly/Mono-ADP Ribose Rabbit mAb) was diluted 2000-fold with the blocking buffer and then added at 20 µL/well.
# 1.1.11. Washing: The primary antibody was discarded, and the plate was washed 3 times with the PBST solution according to the method in step 2. Finally, the reaction plate was patted dry.
# 1.1.12. A secondary antibody (anti-rabbit IgG, HRP-linked Antibody) was diluted 2000-fold with the blocking buffer and then added at 20 µL/well.
# 1.1.13. Washing: The secondary antibody was discarded, and the plate was washed 3 times with the PBST solution according to the method in step 2. Finally, the reaction plate was patted dry.
# 1.1.14. Color development: Femto-ECL Substrate A and Femto-ECL Substrate B were mixed at a ratio of 1:1, and the mixture was transferred to the 384-well reaction plate at 25 µL/well. 1.1.15. Reading: The chemiluminescence values (RLU) were measured using Envision.
# [2] = tested on: BRCA-mutated MDA-MB-436 cells; assay: Anti-proliferative activity against cells (CCK8): MDA-MB-436; format: cell-based; conditions: Homo sapiens, 72 h + 96 h culture
# [3] = tested on: BRCA wild-type DLD-1 cells; assay: Anti-proliferative activity against cells (CCK8): DLD-1; format: cell-based; conditions: Homo sapiens, 72 h + 96 h culture
# Method: BRCA wild-type DLD-1 cells were cultured in an RPMI-1640 medium containing 10% fetal bovine serum, 100 U/mL penicillin, and 100 µg/mL streptomycin, and incubated in an incubator with 5% saturated CO2 at 37 °C. When the cells grew to 80% confluence, they were collected, centrifuged at 300 g for 10 min, and then plated onto a 96-well plate at 1000 cells/well. After 24 h, different final concentrations (0 µM, 1 µM, and 10 µM) of PARPi were added, and the cells were cultured for another 72 h. The cells were subjected to medium exchange treatment (re-supplemented with PARPi at the same final concentrations) and then cultured for another 96 h. The 96-well plate was taken out.
# T1 sequence (P09874 whole entry): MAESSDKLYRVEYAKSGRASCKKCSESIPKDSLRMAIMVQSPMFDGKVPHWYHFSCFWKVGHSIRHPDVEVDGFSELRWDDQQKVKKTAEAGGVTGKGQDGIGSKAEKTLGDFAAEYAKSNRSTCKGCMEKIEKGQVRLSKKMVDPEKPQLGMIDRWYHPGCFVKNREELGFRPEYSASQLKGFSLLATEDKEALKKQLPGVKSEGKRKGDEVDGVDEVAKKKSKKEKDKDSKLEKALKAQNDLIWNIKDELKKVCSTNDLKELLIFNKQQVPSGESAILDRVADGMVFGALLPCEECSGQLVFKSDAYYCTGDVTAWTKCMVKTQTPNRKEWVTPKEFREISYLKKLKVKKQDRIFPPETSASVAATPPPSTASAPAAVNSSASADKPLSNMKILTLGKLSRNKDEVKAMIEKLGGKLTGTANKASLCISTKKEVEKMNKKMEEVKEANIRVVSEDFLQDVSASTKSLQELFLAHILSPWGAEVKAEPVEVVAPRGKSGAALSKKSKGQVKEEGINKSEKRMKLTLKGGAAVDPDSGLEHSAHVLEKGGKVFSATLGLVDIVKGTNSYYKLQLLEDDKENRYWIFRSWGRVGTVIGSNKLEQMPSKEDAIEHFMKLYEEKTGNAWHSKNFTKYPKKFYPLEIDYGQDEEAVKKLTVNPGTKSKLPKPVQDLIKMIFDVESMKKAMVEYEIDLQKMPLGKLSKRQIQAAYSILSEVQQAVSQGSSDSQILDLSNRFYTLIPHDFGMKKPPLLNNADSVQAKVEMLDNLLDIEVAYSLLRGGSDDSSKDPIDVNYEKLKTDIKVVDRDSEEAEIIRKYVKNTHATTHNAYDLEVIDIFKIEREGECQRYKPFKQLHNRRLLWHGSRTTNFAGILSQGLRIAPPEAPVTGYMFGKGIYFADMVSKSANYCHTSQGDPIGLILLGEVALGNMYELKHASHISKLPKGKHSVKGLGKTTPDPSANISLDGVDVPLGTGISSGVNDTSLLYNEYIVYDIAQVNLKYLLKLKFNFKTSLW
SMILES,IC50 [1] [nM],IC50 [2] [nM],IC50 [3] [nM]
"CCc1cc2c([nH]c1=O)CC(CN1CC=C(c3ccc(C(=O)NC)nc3)CC1)OC2 (centres unmarked) [Compound 5, 1'-((3-Ethyl-2-oxo-1,5,7,8-tetrahydro-2H-pyrano[4,3-b]pyridin-7-yl)methyl)-N-methyl-1',2',3',6'-tetrahydro-[3,4'-bipyridine]-6-carboxamide]",≤ 50,7.5,> 1000
"CCc1cc2c([nH]c1=O)CC(CN1CCN(c3ccc(C(=O)NC)nc3C)CC1)OC2 (centres unmarked) [Compound 38, 5-(4-((3-Ethyl-2-oxo-1,5,7,8-tetrahydro-2H-pyrano[4,3-b]pyridin-7-yl)methyl)piperazin-1-yl)-N,6-dimethylpicoli namide]",≤ 50,3.5,> 1000
"CNC(=O)c1ccc(C2=CCN(CC3Cc4[nH]c(=O)c(Cl)cc4CO3)CC2)c(F)n1 (centres unmarked) [Example 63, 1'-((3-Chloro-2-oxo-1,5,7,8-tetrahydro-2H-pyrano[4,3-b]pyridin-7-yl)methyl)-2-fluoro-N-met hyl-1',2',3',6'-tetrahydro-[3,4'-bipyridine]-6-carboxamide]",50 to 500,430,> 1000
"CCc1nc2c([nH]c1=O)C[C@@H](CN1CCC(c3ccc(C(=O)NC)nc3F)CC1)CC2 [Example 54, (S)-5-(1-((2-Ethyl-3-oxo-3,4,5,6,7,8-hexahydroquinoxalin-6-yl)methyl)piperidin-4-yl)-6-fluor o-N-methylpicolinamide]",50 to 500,250,> 1000
"COC1CC(NC(=O)c2ccc(N3CCN(CC4Cc5[nH]c(=O)c(C)cc5CO4)CC3)c(F)n2)C1 (centres unmarked) [Example 79, 6-Fluoro-N-(3-methoxycyclobutyl)-5-(4-((3-methyl-2-oxo-1,5,7,8-tetrahydro-2H-pyrano[4,3-b]pyridin-7-yl)methyl)piperazin-1-yl)picolinamide]",,130,> 1000
"C=Cc1cc2c([nH]c1=O)CC(CN1CC=C(c3ccc(C(=O)NC)nc3F)CC1)OC2 (centres unmarked) [Example 68, 2-Fluoro-N-methyl-1'-((2-oxo-3-vinyl-1,5,7,8-tetrahydro-2H-pyrano[4,3-b]pyridin-7-yl)methyl)-1',2',3',6'-tetrahydro-[3,4'-bipyridine]-6-carboxamide]",≤ 50,6,> 1000
"CNC(=O)c1ccc(C2=CCN(C[C@H]3CCc4nc(C5CC5)c(=O)[nH]c4C3)CC2)c(F)n1 [Example 56, (S)-1'-((2-Cyclopropyl-3-oxo-3,4,5,6,7,8-hexahydroquinoxaline-6-yl)methyl)-2-fluoro-N-met hyl-1',2',3',6'-tetrahydro-[3,4'-bipyridine]-6-carboxamide]",≤ 50,,> 1000
"CNC(=O)c1ccc(N2CCN(C(C)[C@H]3CCc4nc(C)c(=O)[nH]c4C3)CC2)c(F)n1 (stereo partly drawn) [Example 71, (S)-6-Fluoro-N-methyl-5-(4-(1-(2-methyl-3-oxo-3,4,5,6,7,8-hexahydroquinoxalin-6-yl)ethyl)piperazin-1-yl)picolinamide]",≤ 50,,> 1000
"CCc1cc2c([nH]c1=O)CC(CN1CCC(c3ccc(C(=O)NC)nc3F)CC1)OC2 (centres unmarked) [Example 60, 5-(1-((3-Ethyl-2-oxo-1,5,7,8-tetrahydro-2H-pyrano[4,3-b]pyridin-7-yl)methyl)piperidin-4-yl)-6-fluoro-N-methylpicolinamide]",50 to 500,120,> 1000
"CCc1cc2c([nH]c1=O)CC(CN1CCN(c3ccc(C(=O)NC)nc3)CC1)OC2 (centres unmarked) [Compound 1, 5-(4-((3-Ethyl-2-oxo-1,5,7,8-tetrahydro-2H-pyrano[4,3-b]pyridin-7-yl)methyl)piperazin-1-yl) -N-methylpicolinamide]",≤ 50,300,> 1000
"CCc1nc2c([nH]c1=O)C[C@@H](CN1CCN(c3ccc(C(=O)NC)nc3F)CC1)CC2 [Example 48, (S)-5-(4-((2-Ethyl-3-oxo-3,4,5,6,7,8-hexahydroquinoxalin-6-yl)methyl)piperazin-1-yl)-6-fluor o-N-methylpicolinamide]",≤ 50,,> 1000
"CCc1cc2c([nH]c1=O)CC(CN1CCN(c3ccc(C(=O)NCC(F)F)nc3F)CC1)OC2 (centres unmarked) [Example 49, N-(2,2-Difluoroethyl)-5-(4-((3-ethyl-2-oxo-1,5,7,8-tetrahydro-2H-pyrano[4,3-b]pyridin-7-yl)methyl)piperazin-1-yl)-6-fluoropicolinamide]",≤ 50,300,> 1000
"CNC(=O)c1ccc(N2CCN(CC3COc4cc(Cl)c(=O)[nH]c4C3)CC2)c(F)n1 (centres unmarked) [Example 86, 5-(4-((7-Chloro-6-oxo-3,4,5,6-tetrahydro-2H-pyrano[3,2-b]pyridin-3-yl)methyl)piperazin-1-yl)-6-fluoro-N-methylpicolinamide]",50 to 500,,> 1000
"CCc1cc2c([nH]c1=O)C[C@@H](CN1CCN(c3ccc(C(=O)NC)nc3F)CC1)OC2 [Example 65, (S)-5-(4-((3-Ethyl-2-oxo-1,5,7,8-tetrahydro-2H-pyrano[4,3-b]pyridin-7-yl)methyl)piperazin-1-yl)-6-fluoro-N-methylpicolinamide]",,0.7,> 1000
"CNC(=O)c1ccc(N2CCN(CC3Cc4[nH]c(=O)c(C5CC5)cc4CO3)CC2)c(F)n1 (centres unmarked) [Example 42, 5-(4-((3-Cyclopropyl-2-oxo-1,5,7,8-tetrahydro-2H-pyrano[4,3-b]pyridin-7-yl)methyl)piperazin-1-yl)-6-fluoro-N-methylpicolinamide]",50 to 500,,> 1000
"CNC(=O)c1ccc(N2CCN(CC3Cc4[nH]c(=O)c(Br)cc4CO3)CC2)c(F)n1 (centres unmarked) [Example 40, 5-(4-((3-Bromo-2-oxo-1,5,7,8-tetrahydro-2H-pyrano[4,3-b]pyridin-7-yl)methyl)piperazin-1-yl)-6-fluoro-N-methylpicolinamide]",≤ 50,,> 1000
"CNC(=O)c1ccc(C2CCN(C[C@H]3CCc4nc(C)c(=O)[nH]c4C3)CC2)c(F)n1 [Example 80, (S)-6-Fluoro-N-methyl-5-(1-((2-methyl-3-oxo-3,4,5,6,7,8-hexahydroquinoxalin-6-yl)methyl)piperidin-4-yl)picolinamide]",,300,> 1000
"CNC(=O)c1ccc(N2CCN(C[C@H]3CCc4nc(C5CC5)c(=O)[nH]c4C3)CC2)c(F)n1 [Example 57, (S)-5-(4-((2-Cyclopropyl-3-oxo-3,4,5,6,7,8-hexahydroquinoxaline-6-yl)methyl)piperazin-1-yl)-6-fluoro-N-methylpicolinamide]",≤ 50,,> 1000
"CNC(=O)c1ccc(N2CCN(CC3Cc4[nH]c(=O)c(SC)cc4CO3)CC2)c(F)n1 (centres unmarked) [Example 96, 6-Fluoro-N-methyl-5-(4-((3-(methylthio)-2-oxo-1,5,7,8-tetrahydro-2H-pyrano[4,3-b]pyridin-7-yl)methyl)piperazin-1-yl)picolinamide]",≤ 50,,> 1000
"CNC(=O)c1ccc2c(n1)COC[C@H]1CN(CC3Cc4[nH]c(=O)c(C)cc4CO3)CCN21 (stereo partly drawn) [Example 92, (4aR)-N-Methyl-3-((3-methyl-2-oxo-1,5,7,8-tetrahydro-2H-pyrano[4,3-b]pyridin-7-yl)methyl) -1,2,3,4,4a,5-hexahydro-7H-pyrazino[2,1-c]pyrido[3,2-e][1,4]oxazolidine-9-carboxamide]",≤ 50,,> 1000
"CCc1cc2c([nH]c1=O)C[C@H](CN1CCN(c3ccc(C(=O)NC)nc3F)CC1)OC2 [Example 66, (R)-5-(4-((3-ethyl-2-oxo-1,5,7,8-tetrahydro-2H-pyrano[4,3-b]pyridin-7-yl)methyl)piperazin-1-yl)-6-fluoro-N-methylpicolinamide]",,4.5,> 1000
